Where two headings read alike, the source gives them in different places.
What was measured:
[1] = system: CFA-induced mechanical hyperalgesia; test: Mouse CFA in vivo model (von Frey filaments); parameters: species or system Female C57BL/6 mice; details: 25 mg/kg p.o. b.i.d., 72 hrs after CFA-injection
Protocol: Mouse CFA In Vivo Model […] Mechanical hyperalgesia was measured using von Frey filaments. Briefly, von Frey filaments were being used to stimulate the animal's hindpaw and a behavioural response was measured depending on the strength of the von Frey filament used. The strength of the filament was expressed in [g] and the threshold was recorded when a response of the animal was observed. Both CFA-injected and contralateral response thresholds were determined for each mouse and in each treatment group 72 hrs after CFA-injection. Compound application was done p.o. b.i.d., starting one hour before CFA injection. Data were expressed as the mean threshold for each treatment group. Data were analysed by performing a one way ANOVA over the different dose groups. Planned comparison of means (each versus vehicle) was performed by using a Dunnett's post hoc test, provided that a main effect was detected.

[2] = system: rat hepatocytes; test: In vitro metabolic stability in rat hepatocytes; format: in vitro ADME, Han Wistar rats; details: 1 μM, 1.0×10^6 cells/mL, maximal oral bioavailability calculated from half-life
Protocol: Determination of in vitro metabolic stability in rat hepatocytes (including calculation of hepatic in vivo blood clearance (CL))
Hepatocytes from Han Wistar rats were isolated via a 2-step perfusion method. After perfusion, the liver was carefully removed from the rat: the liver capsule was opened and the hepatocytes were gently shaken out into a Petri dish with ice-cold Williams' medium E (WME). The resulting cell suspension was filtered through sterile gaze in 50 mL falcon tubes and centrifuged at 50×g for 3 min at room temperature. The cell pellet was resuspended in 30 mL WME and centrifuged through a Percoll® gradient for 2 times at 100×g. The hepatocytes were washed again with WME and resuspended in medium containing 5% FCS. Cell viability was determined by trypan blue exclusion.
The test compound was added to a final concentration of 1 μM. […] Samples were frozen at −20° C. overnight, subsequently centrifuged for 15 minutes at 3000 rpm and the supernatant was analyzed with an Agilent 1200 HPLC-system with LCMS/MS detection.
The half-life of a test compound was determined from the concentration-time plot. From the half-life (kel: slope of concentration-time plot; half-life=ln 2/kel) the intrinsic clearances were calculated. Together with the additional parameters liver blood flow, amount of liver cells in vivo and in vitro.
(§1) Metabolic instability is often the main clearance mechanism of xenobiotica leading to a high CL and low bioavailability which may eventually result in a short half-life and a low exposure after oral administration. Thus, reducing the susceptibility of metabolic degradation usually leads to a more favourable pharmacokinetic profile. When using liver microsomes as incubation matrix main phase I metabolic reactions, typically oxidoreductive reactions by cytochrome P450 enzymes and flavin mono-oxygenases (FMO) and hydrolytic reactions by esterases/amidases/epoxidhydrolases, are described. When the incubation of the test compound is performed in a hepatocyte matrix all potential hepatic metabolic processes (phase I and phase II) are covered.

[3] = system: vaginal hyperalgesia; test: Rat dyspareunia model (visceromotor response to vaginal distension); format: in vivo, female Sprague Dawley rats
Source text: The visceromotor response (VMR) to vaginal distension was used in conscious animals as an objective measure of vaginal sensitivity. […] To measure VMR response, 2 Teflon-coated wire electrodes were sutured in the external oblique abdominal muscle, and tunneled subcutaneously to be exteriorized at the base of the neck for future access. On the day of VMR assessment, a lubricated small balloon (1 cm length) was inserted into the mid-vaginal canal. The balloon catheter was secured to the base of the tail and connected to a volume controller/timing device (infusion pump) for balloon distension. The vaginal balloon was inflated to ramp intensities of distension (0.05 ml increments every 20 sec.) to a maximal volume of 0.8 ml. The electrodes were connected to an amplifier (Animal Bio Amp, ADInstrunnents), and the abdominal electromyographic signal was recorded using a data acquisition system (PowerLab, ADInstrunnents) for off-line analysis using LabChart version 7. The number of abdominal muscle contractions was counted manually for each 0.1 ml distension step, as an index of vaginal pain. […] All data were expressed as mean±standard deviation (s.d.), for the number (n) of measured rats per group. […] Planned comparison of means (matched-volume versus vehicle) was performed using a Bonferroni post hoc test, provided that a main effect was detected. […]

[4] = system: CFA-induced mechanical hyperalgesia; test: Rat CFA in vivo model (mechanical hyperalgesia, paw withdrawal threshold); parameters: species or system Male Sprague Dawley rats; details: 3 mg/kg p.o., dosed 24 hours after CFA injection
Protocol: Rat CFA In Vivo Model Male Sprague Dawley rats were used. Mechanical hyperalgesia was induced by injecting 25 μl of Complete Freund's Adjuvant (CFA) into the plantar surface of one hind paw. Mechanical hyperalgesia was measured using the Pressure Application Measurement apparatus (Ugo Basile, Gemonio, Italy). Briefly, a linearly increasing pressure was applied to an area of ˜50 mm2 of the plantar side of the hind paw until a behavioural response (paw withdrawal) was observed or until the pressure reached 1000 gf. The pressure at which the behavioural response occurred was recorded as the “Paw Withdrawal Threshold” (PWT). Both CFA-injected and contralateral PWTs were determined for each rat, in each treatment group and at each time point of the studies. […] Compounds were dosed 24 hours after CFA injection. Data were expressed as the mean PWT for each treatment group and at each time point. Data were analysed by performing a repeated measures two way ANOVA (time×treatment). Planned comparison of means (each versus vehicle) was performed by using a Dunnett's post hoc test, provided that a main effect was detected. […] More preferred examples of the present invention show rat CFA in vivo efficacy in the ‘Paw withdrawal threshold 6 hours post drug’ measure when dosed at 3 mg/kg p.o.

[5] = In vivo pharmacokinetics in dogs; details: Beagle, plasma, dog
Protocol: For pharmacokinetics after intragastral administration test compounds were given intragastral to fasted rats, dogs and monkeys. […] An aliquot of 100 μL from the supernatant (plasma) was taken and precipitated by addition of 400 μL cold acetonitril and frozen at −20° C. over night. Samples were subsequently thawed and centrifuged at 3000 rpm, 4° C. for 20 minutes. Aliquots of the supernatants were taken for analytical testing using an Agilent HPLC-system with LCMS/MS detection. PK parameters were calculated by non-compartmental analysis using a PK calculation software, (e.g. Phoenix WinNonlin®, Certara USA, Inc.).
PK parameters directly taken or calculated from concentration time profiles after i.g.: Cmax: Maximal plasma concentration (directly taken from the profile in mg/L); Cmaxnorm: Cmax divided by the administered dose (in kg/L); Tmax: Time point at which Cmax was observed (in h).

[6] = Human liver cytosol stability assay; format: in vitro ADME; details: human liver cytosol 1 mg/mL, 1 or 10 μM, 37° C.
Protocol: Human Liver Cytosol Stability Assay
Method description: Human liver cytosol (pooled, >30 male and female donors) was incubated with individual test compounds in order to compare the extent of depletion of test compound and formation of the respective oxidised metabolite. […] An incubation volume of 1000 μL was used. The test compound was added from a stock solution in acetonitrile at 1 or 10 μM concentration in the incubation. Incubations were performed at 37° C. Reactions were stopped at 0 h and 4 h after incubation by addition of 100 μL acetonitrile to 250 μL of incubation mixture. Precipitated proteins were removed by centrifugation at approximately 3000 rpm. The supernatants were stored at approximately −20° C. until they were analysed. […]
Data analysis: The depletion of the test compound and formation of the corresponding metabolites were determined by decrease or increase of the corresponding peak area in the chromatogram after UV detection at approximately 300 nm 4 h after incubation compared to that at 0 h after incubation. […]

[7] = In vitro metabolic stability in liver microsomes (calculation of CL and Fmax); format: in vitro ADME, human; details: 1 μM, 0.5 mg/mL protein, maximal oral bioavailability calculated from half-life
Protocol: In Vitro Metabolic Stability Assays Determination of in vitro metabolic stability in microsomes (including calculation of hepatic in vivo blood clearance (CL) and of maximal oral bioavailability (Fmax))
The metabolic assay was started shortly afterwards by adding the test compound to the incubation at a final volume of 1 mL. Organic solvent in the incubations was limited to […] dimethylsulfoxide (DMSO) and ≤1% acetonitrile. […] Samples were frozen at −20° C. overnight, subsequently centrifuged for 15 minutes at 3000 rpm and the supernatant was analyzed with an Agilent 1200 HPLC-system with LCMS/MS detection.
The half-life of a test compound was determined from the concentration-time plot. From the half-life (kel: slope of concentration-time plot; half-life=ln 2/kel) the intrinsic clearances were calculated. Together with the additional parameters liver blood flow, specific liver weight and microsomal protein content the hepatic in vivo blood clearance (CL) and the maximal oral bioavailability (Fmax) were calculated for the different species.
as §1

[8] = system: taste sensation via the tongue; details: clinical PhII trials, attributed to blockade of P2X2/3 channels; cited from earlier work
[9] = target: CYP2C9 (Homo sapiens (Human), UniProt P11712); test: CYP inhibition assay, CYP2C9; format: in vitro ADME; details: human liver microsomes, probe diclofenac
CYP2C9, sequence (P11712 whole entry): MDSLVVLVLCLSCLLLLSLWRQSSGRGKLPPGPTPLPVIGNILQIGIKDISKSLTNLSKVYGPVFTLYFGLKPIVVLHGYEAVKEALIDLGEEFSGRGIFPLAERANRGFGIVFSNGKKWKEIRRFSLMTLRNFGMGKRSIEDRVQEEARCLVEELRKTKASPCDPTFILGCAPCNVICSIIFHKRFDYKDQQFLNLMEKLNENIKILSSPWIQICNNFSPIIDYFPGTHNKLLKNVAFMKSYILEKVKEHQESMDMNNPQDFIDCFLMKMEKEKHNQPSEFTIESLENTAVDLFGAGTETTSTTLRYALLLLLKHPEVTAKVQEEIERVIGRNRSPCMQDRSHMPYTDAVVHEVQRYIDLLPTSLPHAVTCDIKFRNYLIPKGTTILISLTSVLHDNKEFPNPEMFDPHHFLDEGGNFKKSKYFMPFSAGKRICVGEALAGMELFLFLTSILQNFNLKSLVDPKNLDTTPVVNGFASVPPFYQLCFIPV
Protocol: (§2) Method Description CYP Inhibition Assay
(§3) Data analysis: The CYP-mediated activities in the presence of inhibitors were expressed as percentages of the corresponding control values. A sigmoid-shaped curve was fitted to the data, and the enzyme inhibition parameter IC50 was calculated using a nonlinear least-squares regression analysis of the plot of percent control activity versus concentration of the test inhibitor.

[10] = target: T1, CYP3A4 (Homo sapiens (Human), UniProt P08684); test: Pre-incubation CYP inhibition assay, CYP3A4 (time dependent inhibition); format: in vitro ADME; details: human liver microsomes, probe midazolam, 30 min pre-incubation; read-out: CYP3A4 with preincubation IC50
T1 sequence (P08684 whole entry): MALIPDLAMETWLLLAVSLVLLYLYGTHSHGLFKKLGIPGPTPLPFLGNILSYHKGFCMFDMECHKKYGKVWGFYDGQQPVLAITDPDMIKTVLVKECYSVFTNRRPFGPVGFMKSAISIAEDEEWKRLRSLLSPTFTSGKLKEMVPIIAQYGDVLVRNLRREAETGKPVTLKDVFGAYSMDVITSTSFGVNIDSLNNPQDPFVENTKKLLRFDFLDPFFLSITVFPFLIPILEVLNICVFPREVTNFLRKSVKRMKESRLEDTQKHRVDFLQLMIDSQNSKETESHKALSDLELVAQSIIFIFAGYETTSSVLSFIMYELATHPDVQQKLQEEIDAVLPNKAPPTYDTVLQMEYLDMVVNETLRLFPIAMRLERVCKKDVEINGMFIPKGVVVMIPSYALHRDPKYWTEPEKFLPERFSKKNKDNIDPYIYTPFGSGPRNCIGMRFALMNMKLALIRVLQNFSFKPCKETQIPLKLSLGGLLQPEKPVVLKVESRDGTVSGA
Source text: as §2

[11] = target: T1, CYP3A4; test: CYP inhibition assay, CYP3A4; format: in vitro ADME; details: human liver microsomes, probe midazolam
Protocol: as §2, §3

[12] = target: CYP1A2 (Homo sapiens (Human), UniProt P05177); test: CYP inhibition assay, CYP1A2
CYP1A2, sequence (P05177 whole entry): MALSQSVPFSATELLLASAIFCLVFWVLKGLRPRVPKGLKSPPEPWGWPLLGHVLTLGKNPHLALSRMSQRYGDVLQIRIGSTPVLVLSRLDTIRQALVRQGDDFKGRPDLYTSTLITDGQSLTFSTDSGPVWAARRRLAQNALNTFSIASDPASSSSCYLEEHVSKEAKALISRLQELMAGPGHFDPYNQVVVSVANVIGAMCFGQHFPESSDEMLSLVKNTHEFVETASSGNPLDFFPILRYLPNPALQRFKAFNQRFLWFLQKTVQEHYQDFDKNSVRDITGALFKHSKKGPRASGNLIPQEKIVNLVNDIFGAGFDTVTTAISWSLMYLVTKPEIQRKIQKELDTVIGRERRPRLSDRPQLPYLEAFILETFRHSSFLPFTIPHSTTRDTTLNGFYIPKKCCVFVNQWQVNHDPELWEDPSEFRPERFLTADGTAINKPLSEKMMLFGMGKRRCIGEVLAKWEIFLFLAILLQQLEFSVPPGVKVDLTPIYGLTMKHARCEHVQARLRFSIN
Protocol: as §2, §3

[13] = target: CYP2C8 (Homo sapiens (Human), UniProt P10632); test: CYP inhibition assay, CYP2C8; format: in vitro ADME; details: human liver microsomes, probe amodiquine
CYP2C8, sequence (P10632 whole entry): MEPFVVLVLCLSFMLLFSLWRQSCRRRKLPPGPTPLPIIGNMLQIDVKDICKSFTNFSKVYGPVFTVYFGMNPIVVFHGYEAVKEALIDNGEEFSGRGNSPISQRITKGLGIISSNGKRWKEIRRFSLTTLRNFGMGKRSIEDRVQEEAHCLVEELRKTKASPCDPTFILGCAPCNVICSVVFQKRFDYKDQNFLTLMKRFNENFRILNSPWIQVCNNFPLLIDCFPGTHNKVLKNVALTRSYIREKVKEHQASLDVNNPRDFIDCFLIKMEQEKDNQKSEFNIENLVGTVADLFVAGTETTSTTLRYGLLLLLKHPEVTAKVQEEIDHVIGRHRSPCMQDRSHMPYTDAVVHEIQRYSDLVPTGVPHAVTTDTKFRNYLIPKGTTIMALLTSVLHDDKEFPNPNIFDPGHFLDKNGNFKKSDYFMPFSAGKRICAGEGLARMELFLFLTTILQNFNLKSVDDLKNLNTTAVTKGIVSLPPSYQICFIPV
Protocol: as §2, §3

[14] = target: CYP2D6 (Homo sapiens (Human), UniProt P10635); test: CYP inhibition assay, CYP2D6; format: in vitro ADME; details: human liver microsomes, probe dextromethorphan
CYP2D6, sequence (P10635 whole entry): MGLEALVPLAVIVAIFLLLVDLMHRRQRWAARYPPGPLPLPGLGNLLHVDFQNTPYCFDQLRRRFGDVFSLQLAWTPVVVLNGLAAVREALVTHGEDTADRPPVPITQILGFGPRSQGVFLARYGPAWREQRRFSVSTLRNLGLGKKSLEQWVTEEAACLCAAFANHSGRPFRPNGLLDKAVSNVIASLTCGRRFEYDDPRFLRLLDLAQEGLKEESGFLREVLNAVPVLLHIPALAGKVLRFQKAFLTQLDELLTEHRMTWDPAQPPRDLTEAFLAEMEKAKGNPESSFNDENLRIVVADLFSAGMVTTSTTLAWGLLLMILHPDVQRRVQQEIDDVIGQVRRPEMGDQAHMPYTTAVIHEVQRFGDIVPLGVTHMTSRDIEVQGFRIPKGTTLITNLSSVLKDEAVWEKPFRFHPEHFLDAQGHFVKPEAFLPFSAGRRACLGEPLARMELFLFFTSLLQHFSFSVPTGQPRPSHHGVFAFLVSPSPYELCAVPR
Protocol: as §2, §3

## Cc1cnc(-c2cc(O[C@@H]3CCOC3)cc(C(=O)N[C@H](C)c3cnc(C(F)(F)F)nc3)c2)s1 [Example 11, 3-(5-Methyl-1,3-thiazol-2-yl)-5-[(3R)-tetrahydrofuran-3-yloxy]-N-{(1R)-1-[2-(trifluoromethyl)pyrimidin-5-yl]ethyl}benzamide]
[1]
  Efficacy mouse CFA model (von Frey response threshold): 0.682 g ± 0.122 (*)
[2]
  Rat hepatocyte Fmax: 52%
[3]; 15 mg/kg oral b.i.d. during 2 weeks
  vaginal hyperalgesia compared to vehicle-treated animals: decreased vaginal hyperalgesia
[3]; 15 mg/kg oral b.i.d. for 2 weeks, 6 weeks post-implantation (off-drug), mean ± s.d.
  AUC of cumulative number of abdominal contractions against vaginal distension volume: 1.64 ± 1.53 (17)
[4]
  Paw withdrawal threshold 6 hour-post drug: 639 ± 48 gf (*)
[5]; iv, 0.5 mg/kg i.v., read-out: Dog t½ i.v. (converted)
  half-life: 528 min
[5]; oral, 1 mg/kg p.o., 0.5 mg/kg i.v., read-out: Dog Bioavailability (BA)
  bioavailability: 70%
[5]; po, 1 mg/kg p.o., read-out: Dog t½ p.o. (converted)
  half-life: 720 min
[6]
  Test compound turnover after 4 h: 12%
[7]
  Human liver microsome Fmax: 57%

## Cc1cnc(-c2cc(O[C@H]3CCOC3)cc(C(=O)N[C@H](C)c3cnc(C(F)(F)F)nc3)c2)s1 [Example 26, 3-(5-Methyl-1,3-thiazol-2-yl)-5-[(3S)-tetrahydrofuran-3-yloxy]-N-{(1R)-1-[2-(trifluoromethyl)pyrimidin-5-yl]ethyl}benzamide]
[2]
  Rat hepatocyte Fmax: 56%
[6]
  Test compound turnover after 4 h: 12%
[7]
  Human liver microsome Fmax: 67%

## COc1cc(C(C)C)c(Oc2cnc(N)nc2N)cc1S(N)(=O)=O [AF-219]
[8]
  effect on taste in treated subjects: leads to taste disturbances

## Cc1cnc(-c2cc(OC(C)C(C)O)cc(C(=O)N[C@H](C)c3cnc(C(F)(F)F)nc3)c2)s1 (single isomer, unassigned) [Example 163]
[9]
  IC50: > 20 µM
[2]
  Rat hepatocyte Fmax: 53%
[10]
  IC50: > 20 µM
[11]
  IC50: > 20 µM
[7]
  Human liver microsome Fmax: 100%
[12]
  IC50: > 20 µM
[13]
  IC50: > 20 µM
[14]
  IC50: > 20 µM

Reference: patent US10174016B2 (BAYER AKTIENGESELLSCHAFT, priority 2014, dated 2019)
